Literature values in US6071925A (priority 1997, dated 2000).

How the values were obtained:
mice [1] = conditions: intra-cerebroventricular
LC 132 receptor = conditions: CHO(LC 132+) cells in culture
mice [2] = conditions: intra-cerebroventricular; remark: listed apart in the source

## OFQ: seventeen amino-acid-long peptide (F-G-G-F-T-G-A-R-K-S-A-R-K-L-A-N-Q), natural ligand for the G-protein coupled receptor OFQ-R
Mice [1]
  effect on locomotive activity: slowed down locomotive activity
LC 132 receptor
  effect on adenylate cyclase: inhibits adenylate cyclase
Mice [2]
  effect on nociception: induces hyperalgesia
